Values after ≈ are worked out from the molar mass of the structure shown.
Legend:
[1] = system: Mycobacterium avium; experiment: Minimum inhibitory concentration required against Mycobacterium avium isolate from patient number MAC100; type: functional
[2] = system: Mycobacterium avium; experiment: Minimum inhibitory concentration required against Mycobacterium avium isolate from patient number MAC108; type: functional
[3] = system: Mycobacterium avium; experiment: Minimum inhibitory concentration required against Mycobacterium avium isolate from patient number MAC109; type: functional
[4] = system: Mycobacterium avium; experiment: Minimum inhibitory concentration required against Mycobacterium avium isolate from patient number MAC16; type: functional
[5] = system: Mycobacterium avium; experiment: Minimum inhibitory concentration required against Mycobacterium avium isolate from patient number MAC101; type: functional
[6] = molecular target: T1, Dihydrofolate reductase (Mycobacterium avium, UniProt O30463)
T1 sequence (O30463 whole entry): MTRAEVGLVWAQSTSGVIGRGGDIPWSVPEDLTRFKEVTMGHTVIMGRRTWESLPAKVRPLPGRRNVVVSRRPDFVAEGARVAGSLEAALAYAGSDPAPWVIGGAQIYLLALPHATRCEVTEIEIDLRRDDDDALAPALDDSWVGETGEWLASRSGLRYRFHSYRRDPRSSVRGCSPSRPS
Description: Inhibitory concentration against dihydrofolate reductase of Mycobacterium avium

[7] = molecular target: T2, Bifunctional dihydrofolate reductase-thymidylate synthase (Toxoplasma gondii, UniProt Q07422)
T2 sequence (Q07422 whole entry): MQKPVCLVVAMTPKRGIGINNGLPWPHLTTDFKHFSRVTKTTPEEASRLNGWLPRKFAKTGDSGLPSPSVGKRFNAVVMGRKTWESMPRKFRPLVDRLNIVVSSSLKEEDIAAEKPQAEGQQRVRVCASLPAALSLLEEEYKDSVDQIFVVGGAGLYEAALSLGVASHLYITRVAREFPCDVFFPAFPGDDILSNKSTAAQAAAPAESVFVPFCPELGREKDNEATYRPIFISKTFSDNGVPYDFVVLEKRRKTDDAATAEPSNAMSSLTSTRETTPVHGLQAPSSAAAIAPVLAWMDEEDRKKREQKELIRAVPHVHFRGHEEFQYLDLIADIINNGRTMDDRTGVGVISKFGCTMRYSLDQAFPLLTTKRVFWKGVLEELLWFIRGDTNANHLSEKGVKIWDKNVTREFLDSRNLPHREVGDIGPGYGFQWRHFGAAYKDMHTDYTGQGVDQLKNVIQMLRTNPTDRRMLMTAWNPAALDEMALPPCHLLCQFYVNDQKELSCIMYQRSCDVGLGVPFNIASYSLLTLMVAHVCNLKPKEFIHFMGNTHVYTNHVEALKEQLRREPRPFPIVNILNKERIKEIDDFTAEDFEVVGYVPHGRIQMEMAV

[8] = molecular target: T3, Dihydrofolate reductase (Rattus norvegicus, UniProt Q920D2)
T3 sequence (Q920D2 whole entry): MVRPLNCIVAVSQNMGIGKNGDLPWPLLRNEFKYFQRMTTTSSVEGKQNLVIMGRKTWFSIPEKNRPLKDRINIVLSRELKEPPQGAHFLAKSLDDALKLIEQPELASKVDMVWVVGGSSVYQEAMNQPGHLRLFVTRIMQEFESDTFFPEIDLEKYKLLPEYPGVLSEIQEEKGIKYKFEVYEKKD
Description: Inhibitory concentration against dihydrofolate reductase of rat liver

[9] = molecular target: T4, Dihydrofolate reductase (Pneumocystis carinii, UniProt P16184)
T4 sequence (P16184 whole entry): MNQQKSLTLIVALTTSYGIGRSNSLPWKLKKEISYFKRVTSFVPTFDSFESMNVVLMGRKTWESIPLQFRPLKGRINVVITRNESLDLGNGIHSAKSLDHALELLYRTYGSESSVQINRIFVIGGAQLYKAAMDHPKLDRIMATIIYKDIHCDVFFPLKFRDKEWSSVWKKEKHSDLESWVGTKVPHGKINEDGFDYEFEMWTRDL
Description: Inhibitory concentration against dihydrofolate reductace enzyme of Pneumocystis carinii

[10] = system: Mycobacterium avium; experiment: Minimum inhibitory concentration required for 50 percent inhibition of Mycobacterium avium isolate; type: functional
[11] = system: Mycobacterium avium; experiment: Minimum inhibitory concentration required for 90 percent inhibition of Mycobacterium avium isolate; type: functional
[12] = system: Mycobacterium avium; experiment: Concentration of compound required against Mycobacterium avium; Range is 2-16 ug/mL; type: functional, organism-based
[13] = system: Mycobacterium avium; experiment: Concentration of compound required against Mycobacterium avium; Range is 2-32; type: functional, organism-based
[14] = system: Mycobacterium avium; experiment: Minimum inhibitory concentration required against Mycobacterium avium isolate from patient number MAC116; type: functional
[15] = system: Mycobacterium avium; experiment: Concentration of compound required against Mycobacterium avium; Range is 4-32; type: functional, organism-based
[16] = system: Mycobacterium avium; experiment: Concentration of compound required against Mycobacterium aviumRange is 2-32; type: functional, organism-based
[17] = system: Mycobacterium avium; experiment: microbe, parasite or virus in culture

SMILES | MIC [1] | MIC [2] | MIC [3] | MIC [4] | MIC [5] | IC50 [6] | MIC50 [10] | MIC90 [11] | also measured
COc1ccc(OCc2ccc(C(=O)O)cc2)cc1Cc1cnc(N)nc1N | > 32 µg/mL | > 32 µg/mL | > 32 µg/mL | > 32 µg/mL | > 32 µg/mL | – | – | – | –
Cc1ccc(Cl)cc1Cc1cnc2nc(N)nc(N)c2c1C | – | – | – | – | – | 0.19 nM | – | – | –
COc1ccc(C#Cc2cccc(C(=O)O)c2)cc1Cc1cnc(N)nc1N | > 64 µg/mL | > 64 µg/mL | > 64 µg/mL | > 64 µg/mL | > 64 µg/mL | 1.5 nM | – | – | IC50 [7]: 5.5 nM; IC50 [8]: 650 nM; IC50 [9]: 23 nM
COc1ccc(OCCCCC(=O)O)cc1Cc1cnc(N)nc1N | 16 µg/mL (≈ 46.2 µM) | > 32 µg/mL | 16 µg/mL (≈ 46.2 µM) | 16 µg/mL (≈ 46.2 µM) | 16 µg/mL (≈ 46.2 µM) | – | 16 µg/mL (≈ 46.2 µM) | 32 µg/mL (≈ 92.4 µM) | –
CCCCCCCOc1ccc(OC)c(Cc2cnc(N)nc2N)c1 | 8 µg/mL (≈ 23.2 µM) | 8 µg/mL (≈ 23.2 µM) | 8 µg/mL (≈ 23.2 µM) | 8 µg/mL (≈ 23.2 µM) | 4 µg/mL (≈ 11.6 µM) | – | 8 µg/mL (≈ 23.2 µM) | 8 µg/mL (≈ 23.2 µM) | Concentration [12]: 16 µg/mL
COc1ccc(C#CCOc2cccc(C(=O)O)c2)cc1Cc1cnc(N)nc1N | > 32 µg/mL | > 32 µg/mL | > 32 µg/mL | > 32 µg/mL | > 32 µg/mL | – | – | – | –
COc1ccc(C#Cc2ccc(C(=O)O)cc2)cc1Cc1cnc(N)nc1N | > 64 µg/mL | > 64 µg/mL | > 64 µg/mL | > 64 µg/mL | > 64 µg/mL | 3.7 nM | – | – | IC50 [7]: 340 nM; IC50 [8]: 8200 nM; IC50 [9]: 1300 nM
COc1ccc(OCCCCCCCC(=O)O)cc1Cc1cnc(N)nc1N | 8 µg/mL (≈ 20.6 µM) | 32 µg/mL (≈ 82.4 µM) | 2 µg/mL (≈ 5.15 µM) | 2 µg/mL (≈ 5.15 µM) | 4 µg/mL (≈ 10.3 µM) | – | 4 µg/mL (≈ 10.3 µM) | 8 µg/mL (≈ 20.6 µM) | Concentration [13]: 32 µg/mL
COc1ccc(CCCCC(=O)O)cc1Cc1cnc(N)nc1N | > 32 µg/mL | > 32 µg/mL | > 32 µg/mL | – | > 32 µg/mL | – | – | – | MIC [14]: > 32 µg/mL
COc1ccc(OCCCCCC(=O)O)cc1Cc1cnc(N)nc1N | 16 µg/mL (≈ 44.4 µM) | 32 µg/mL (≈ 88.8 µM) | 8 µg/mL (≈ 22.2 µM) | 8 µg/mL (≈ 22.2 µM) | 8 µg/mL (≈ 22.2 µM) | – | 4 µg/mL (≈ 11.1 µM) | 32 µg/mL (≈ 88.8 µM) | Concentration [15]: 32 µg/mL
COc1ccc(/C=C/COc2ccccc2C(=O)O)cc1Cc1cnc(N)nc1N | – | – | – | – | – | 380 nM | – | – | IC50 [7]: 2500 nM; IC50 [8]: 6400 nM; IC50 [9]: 8600 nM
COc1ccc(C#Cc2ccccc2C(=O)O)cc1Cc1cnc(N)nc1N | > 64 µg/mL | > 64 µg/mL | > 64 µg/mL | – | > 64 µg/mL | 100 nM | – | – | IC50 [7]: 1900 nM; MIC [14]: > 64 µg/mL; IC50 [8]: 25000 nM; IC50 [9]: 4100 nM
COc1ccc(C#CCCCC(=O)O)cc1Cc1cnc(N)nc1N | 8 µg/mL (≈ 23.5 µM) | 32 µg/mL (≈ 94 µM) | 16 µg/mL (≈ 47 µM) | 8 µg/mL (≈ 23.5 µM) | 4 µg/mL (≈ 11.8 µM) | – | 8 µg/mL (≈ 23.5 µM) | 16 µg/mL (≈ 47 µM) | Concentration [15]: 32 µg/mL
COc1ccc(C#CCCC(=O)O)cc1Cc1cnc(N)nc1N | 8 µg/mL (≈ 24.5 µM) | 16 µg/mL (≈ 49 µM) | 16 µg/mL (≈ 49 µM) | 16 µg/mL (≈ 49 µM) | 8 µg/mL (≈ 24.5 µM) | – | 8 µg/mL (≈ 24.5 µM) | 16 µg/mL (≈ 49 µM) | Concentration [15]: 32 µg/mL
COc1cc(Cc2cnc3nc(N)nc(N)c3c2C)cc(OC)c1 | – | – | – | – | – | 0.64 nM | – | – | –
COc1ccc(CCCOc2ccccc2C(=O)O)cc1Cc1cnc(N)nc1N | – | – | – | – | – | 310 nM | – | – | IC50 [7]: 710 nM; IC50 [8]: 25000 nM; IC50 [9]: 7800 nM
COc1ccc(CCc2ccc(C(=O)O)cc2)cc1Cc1cnc(N)nc1N | – | – | – | – | – | 25 nM | – | – | IC50 [7]: 1500 nM; IC50 [8]: 13000 nM; IC50 [9]: 7100 nM
COc1ccc(CCCCCCC(=O)O)cc1Cc1cnc(N)nc1N | > 32 µg/mL | > 32 µg/mL | 32 µg/mL (≈ 89.3 µM) | 16 µg/mL (≈ 44.6 µM) | 32 µg/mL (≈ 89.3 µM) | – | – | – | –
COc1ccc(CCCOc2cccc(C(=O)O)c2)cc1Cc1cnc(N)nc1N | – | – | – | – | – | 25 nM | – | – | IC50 [7]: 210 nM; IC50 [8]: 4000 nM; IC50 [9]: 1100 nM
COc1ccc(OCCCC(=O)O)cc1Cc1cnc(N)nc1N | 16 µg/mL (≈ 48.1 µM) | 16 µg/mL (≈ 48.1 µM) | 32 µg/mL (≈ 96.3 µM) | 32 µg/mL (≈ 96.3 µM) | 16 µg/mL (≈ 48.1 µM) | – | – | – | –
COc1ccc(C#CCOc2ccccc2C(=O)O)cc1Cc1cnc(N)nc1N | > 32 µg/mL | > 32 µg/mL | > 32 µg/mL | > 32 µg/mL | > 32 µg/mL | – | – | – | –
CCCCCCOc1ccc(OC)c(Cc2cnc(N)nc2N)c1 | 32 µg/mL (≈ 96.8 µM) | 32 µg/mL (≈ 96.8 µM) | 32 µg/mL (≈ 96.8 µM) | 32 µg/mL (≈ 96.8 µM) | 32 µg/mL (≈ 96.8 µM) | – | – | – | –
COc1ccc(CCCCCC(=O)O)cc1Cc1cnc(N)nc1N | 32 µg/mL (≈ 92.9 µM) | > 32 µg/mL | 32 µg/mL (≈ 92.9 µM) | 32 µg/mL (≈ 92.9 µM) | 16 µg/mL (≈ 46.5 µM) | – | – | – | –
COc1ccc(OCCCCCCC(=O)O)cc1Cc1cnc(N)nc1N | 16 µg/mL (≈ 42.7 µM) | > 32 µg/mL | 8 µg/mL (≈ 21.4 µM) | 16 µg/mL (≈ 42.7 µM) | 8 µg/mL (≈ 21.4 µM) | – | 4 µg/mL (≈ 10.7 µM) | 32 µg/mL (≈ 85.5 µM) | Concentration [16]: 32 µg/mL
COc1ccc(OCc2cccc(C(=O)O)c2)cc1Cc1cnc(N)nc1N | > 32 µg/mL | > 32 µg/mL | > 32 µg/mL | > 32 µg/mL | > 32 µg/mL | – | – | – | –
COc1cc(Cc2cnc(N)nc2N)cc(OC)c1OC [TRIMETHOPRIM] | – | – | – | – | – | – | – | – | MIC [17]: > 64 µg/mL
COc1ccc(C#CCCCCC(=O)O)cc1Cc1cnc(N)nc1N | 4 µg/mL (≈ 11.3 µM) | > 32 µg/mL | 4 µg/mL (≈ 11.3 µM) | 2 µg/mL (≈ 5.64 µM) | 2 µg/mL (≈ 5.64 µM) | – | 8 µg/mL (≈ 22.6 µM) | 16 µg/mL (≈ 45.1 µM) | Concentration [13]: 32 µg/mL
COc1ccc(OCCCCCCCCC(=O)O)cc1Cc1cnc(N)nc1N | 8 µg/mL (≈ 19.9 µM) | > 32 µg/mL | 4 µg/mL (≈ 9.94 µM) | 2 µg/mL (≈ 4.97 µM) | 2 µg/mL (≈ 4.97 µM) | – | 4 µg/mL (≈ 9.94 µM) | 8 µg/mL (≈ 19.9 µM) | Concentration [12]: 16 µg/mL

Source: ChEMBL document CHEMBL1149100, “New 2,4-diamino-5-(2',5'-substituted benzyl)pyrimidines as potential drugs against opportunistic infections of AIDS and other immune disorders. Synthesis and species-dependent antifolate activity” (J Med Chem, 2004)
